Measured values published in US4594338A, “Thioether derivatives of tylosin” (priority 1984, dated 1986).
≈ marks a conversion by molar mass, not a printed value.

Assays:
Format in all cases: cell-based
[1] = test system: Micrococcus luteus ATCC 9341; test: Minimum inhibitory concentration, Micrococcus luteus ATCC 9341; conditions: ATCC9341
Description: (§1) The compounds of formula (I) show antibacterial activity against both gram-positive and gram-negative bacteria. The following Tables illustrate minimum inhibitory concentrations (MIC's) for a representative sample of the compounds of the invention against gram-positive and gram-negative bacteria as well as bacteria resistant to antibiotics. In the Tables abbreviations with the symbol r attached designate resistant bacterial strains.

[2] = test system: Mycobacterium smegmatis ATCC 607; test: Minimum inhibitory concentration, Mycobacterium smegmatis ATCC 607; conditions: Mycolicibacterium smegmatis, ATCC607
Description: as §1

[3] = test system: Staphylococcus aureus KB 191 (MC, TC^r); test: Minimum inhibitory concentration against resistant strain Staphylococcus aureus KB 191
Description: as §1

[4] = test system: Staphylococcus aureus ATCC 6538P; test: Minimum inhibitory concentration, Staphylococcus aureus ATCC 6538P; conditions: ATCC6538P
Description: as §1

[5] = test system: Pseudomonas aeruginosa P-3; test: Minimum inhibitory concentration, Pseudomonas aeruginosa P-3; conditions: P3
Description: as §1

[6] = test system: Bacillus subtilis PCI 219; test: Minimum inhibitory concentration, Bacillus subtilis PCI 219; conditions: PCI219
Description: as §1

[7] = test system: Klebsiella pneumoniae PCI 602; test: Minimum inhibitory concentration, Klebsiella pneumoniae PCI 602; conditions: PCI602
Description: as §1

[8] = test system: Bacillus cereus IFO 3001; test: Minimum inhibitory concentration, Bacillus cereus IFO 3001; conditions: IFO3001
Description: as §1

[9] = test system: Staphylococcus aureus KB 199(EM^r); test: Minimum inhibitory concentration, Staphylococcus aureus KB 199(EM^r); conditions: Staphylococcus aureus KB 199, erythromycin-resistant (EM^r)
Description: as §1

[10] = test system: Proteus vulgaris IFO 3167; test: Minimum inhibitory concentration, Proteus vulgaris IFO 3167; conditions: IFO3167
Description: as §1

[11] = test system: Escherichia coli NIHJ; test: Minimum inhibitory concentration, Escherichia coli NIHJ
Description: as §1

[12] = test system: Klebsiella pneumoniae ATCC 10031; test: Minimum inhibitory concentration, Klebsiella pneumoniae ATCC 10031; conditions: ATCC10031
Description: as §1

[13] = test system: Staphylococcus aureus KB 219 (MC, TC, PC, CP^r); test: Minimum inhibitory concentration against resistant strain Staphylococcus aureus KB 219
Description: as §1

[14] = test system: Staphylococcus aureus KB 224 (MC, TC, KM, SM^r); test: Minimum inhibitory concentration against resistant strain Staphylococcus aureus KB 224
Description: as §1

[15] = test system: Salmonella typhirium KB 20; test: Minimum inhibitory concentration, Salmonella typhirium KB 20; conditions: KB20, read-out: minimum inhibitory concentration (MIC)
Description: as §1

[16] = test system: Staphylococcus aureus KB 221 (MC, TC, CP, KM^r); test: Minimum inhibitory concentration against resistant strain Staphylococcus aureus KB 221
Description: as §1

SMILES	MIC [1]	MIC [2]	MIC [3]	MIC [4]	MIC [5]	MIC [6]	MIC [7]	MIC [8]	MIC [9]	MIC [10]	MIC [11]	MIC [12]	MIC [13]	MIC [14]	MIC [15]	MIC [16]
CCC1OC(=O)CC(O)C(C)C(OC2OC(C)C(OC3CC(C)(O)C(O)C(C)O3)C(N(C)C)C2O)C(CC=O)CC(C)C(=O)CC(Sc2ccc(Cl)cc2)C(C)=CC1COC1OC(C)C(O)C(OC)C1OC (stereo not drawn) [Compound T, 11-(p-Chlorophenylthio)-10,11-dihydrotylosin]	< 0.1 µg/mL	50 µg/mL (≈ 47.1 µM)	25 µg/mL (≈ 23.6 µM)	3.12 µg/mL (≈ 2.94 µM)	> 100 µg/mL	0.4 µg/mL (≈ 0.377 µM)	100 µg/mL (≈ 94.3 µM)	0.4 µg/mL (≈ 0.377 µM)	25 µg/mL (≈ 23.6 µM)	50 µg/mL (≈ 47.1 µM)	100 µg/mL (≈ 94.3 µM)	100 µg/mL (≈ 94.3 µM)	50 µg/mL (≈ 47.1 µM)	25 µg/mL (≈ 23.6 µM)	100 µg/mL (≈ 94.3 µM)	–
CCC1OC(=O)CC(O)C(C)C(OC2OC(C)C(OC3CC(C)(O)C(O)C(C)O3)C(N(C)C)C2O)C(CC=O)CC(C)C(=O)CC(Sc2ccc(OC)cc2)C(C)=CC1COC1OC(C)C(O)C(OC)C1OC (stereo not drawn) [Compound W, 10,11-Dihydro-11-(p-methoxyphenylthio)tylosin]	< 0.1 µg/mL	> 100 µg/mL	50 µg/mL (≈ 47.3 µM)	3.12 µg/mL (≈ 2.95 µM)	> 100 µg/mL	0.4 µg/mL (≈ 0.379 µM)	100 µg/mL (≈ 94.7 µM)	0.4 µg/mL (≈ 0.379 µM)	50 µg/mL (≈ 47.3 µM)	50 µg/mL (≈ 47.3 µM)	100 µg/mL (≈ 94.7 µM)	100 µg/mL (≈ 94.7 µM)	100 µg/mL (≈ 94.7 µM)	50 µg/mL (≈ 47.3 µM)	100 µg/mL (≈ 94.7 µM)	–
CCC1OC(=O)CC(O)C(C)C(OC2OC(C)C(OC3CC(C)(O)C(O)C(C)O3)C(N(C)C)C2O)C(CC(Sc2ccccc2)Sc2ccccc2)CC(C)C(=O)C=CC(C)=CC1COC1OC(C)C(O)C(OC)C1OC (stereo not drawn) [Compound C, Tylosin Diphenyl Thioacetal]	0.2 µg/mL (≈ 0.179 µM)	50 µg/mL (≈ 44.7 µM)	–	12.5 µg/mL (≈ 11.2 µM)	–	0.78 µg/mL (≈ 0.697 µM)	> 100 µg/mL	0.78 µg/mL (≈ 0.697 µM)	> 50 µg/mL	> 100 µg/mL	> 100 µg/mL	> 100 µg/mL	–	–	> 100 µg/mL	–
CCC1OC(=O)CC(O)C(C)C(OC2OC(C)C(OC3CC(C)(O)C(O)C(C)O3)C(N(C)C)C2O)C(CC=O)CC(C)C(=O)CC(Sc2ccccc2)C(C)=CC1COC1OC(C)C(O)C(OC)C1OC (stereo not drawn) [Compound S, 10,11-Dihydro-11-(phenylthio)tylosin]	< 0.1 µg/mL	50 µg/mL (≈ 48.7 µM)	50 µg/mL (≈ 48.7 µM)	1.56 µg/mL (≈ 1.52 µM)	> 100 µg/mL	0.4 µg/mL (≈ 0.39 µM)	100 µg/mL (≈ 97.4 µM)	0.4 µg/mL (≈ 0.39 µM)	50 µg/mL (≈ 48.7 µM)	100 µg/mL (≈ 97.4 µM)	100 µg/mL (≈ 97.4 µM)	100 µg/mL (≈ 97.4 µM)	100 µg/mL (≈ 97.4 µM)	50 µg/mL (≈ 48.7 µM)	100 µg/mL (≈ 97.4 µM)	50 µg/mL (≈ 48.7 µM)
CCC1OC(=O)CC(O)C(C)C(OC2OC(C)C(O)C(N(C)C)C2O)C(CC=O)CC(C)C(=O)CC(Sc2ccc(N)cc2)C(C)=CC1COC1OC(C)C(O)C(OC)C1OC (stereo not drawn) [Compound P, 11-(p-Aminophenylthio)-10,11-dihydrodemycarosyltylosin]	0.2 µg/mL (≈ 0.223 µM)	> 100 µg/mL	–	3.12 µg/mL (≈ 3.48 µM)	> 100 µg/mL	3.12 µg/mL (≈ 3.48 µM)	> 100 µg/mL	0.78 µg/mL (≈ 0.869 µM)	> 100 µg/mL	> 100 µg/mL	> 100 µg/mL	100 µg/mL (≈ 111 µM)	–	–	> 100 µg/mL	–
CCC1OC(=O)CC(O)C(C)C(OC2OC(C)C(OC3CC(C)(O)C(O)C(C)O3)C(N(C)C)C2O)C(CC=O)CC(C)C(=O)CC(Sc2ccc(N)cc2)C(C)=CC1COC1OC(C)C(O)C(OC)C1OC (stereo not drawn) [Compound U, 11-(p-Aminophenylthio)-10,11-dihydrotylosin]	0.78 µg/mL (≈ 0.749 µM)	> 100 µg/mL	25 µg/mL (≈ 24 µM)	6.25 µg/mL (≈ 6 µM)	> 100 µg/mL	0.4 µg/mL (≈ 0.384 µM)	> 100 µg/mL	1.56 µg/mL (≈ 1.5 µM)	> 100 µg/mL	> 100 µg/mL	> 100 µg/mL	> 100 µg/mL	50 µg/mL (≈ 48 µM)	25 µg/mL (≈ 24 µM)	> 100 µg/mL	–
CCSC1CC(=O)C(C)CC(CC=O)C(OC2OC(C)C(O)C(N(C)C)C2O)C(C)C(O)CC(=O)OC(CC)C(COC2OC(C)C(O)C(OC)C2OC)C=C1C (stereo not drawn) [Compound N, 11-(Ethylthio)-10,11-dihydrodemycarosyltylosin]	0.2 µg/mL (≈ 0.24 µM)	> 100 µg/mL	–	1.56 µg/mL (≈ 1.87 µM)	> 100 µg/mL	0.78 µg/mL (≈ 0.935 µM)	> 100 µg/mL	0.78 µg/mL (≈ 0.935 µM)	> 100 µg/mL	> 100 µg/mL	> 100 µg/mL	50 µg/mL (≈ 59.9 µM)	–	–	> 100 µg/mL	–
CCC1OC(=O)CC(O)C(C)C(OC2OC(C)C(O)C(N(C)C)C2O)C(CC=O)CC(C)C(=O)CC(SCCO)C(C)=CC1COC1OC(C)C(O)C(OC)C1OC (stereo not drawn) [O, 10,11-Dihydro-11-(2-hydroxyethylthio)demycarosyltylosin]	0.4 µg/mL (≈ 0.471 µM)	> 100 µg/mL	–	12.5 µg/mL (≈ 14.7 µM)	> 100 µg/mL	12.5 µg/mL (≈ 14.7 µM)	> 100 µg/mL	3.12 µg/mL (≈ 3.67 µM)	> 100 µg/mL	> 100 µg/mL	> 100 µg/mL	> 100 µg/mL	–	–	> 100 µg/mL	–
CCC1OC(=O)CC(O)C(C)C(OC2OC(C)C(OC3CC(C)(O)C(O)C(C)O3)C(N(C)C)C2O)C(CC=O)CC(C)C(=O)CC(Sc2ccc(C)cc2)C(C)=CC1COC1OC(C)C(O)C(OC)C1OC (stereo not drawn) [Compound V, 10,11-Dihydro-11-(p-methylphenylthio)tylosin]	< 0.1 µg/mL	50 µg/mL (≈ 48.1 µM)	–	3.12 µg/mL (≈ 3 µM)	> 100 µg/mL	0.4 µg/mL (≈ 0.384 µM)	100 µg/mL (≈ 96.1 µM)	0.4 µg/mL (≈ 0.384 µM)	25 µg/mL (≈ 24 µM)	50 µg/mL (≈ 48.1 µM)	100 µg/mL (≈ 96.1 µM)	100 µg/mL (≈ 96.1 µM)	–	–	100 µg/mL (≈ 96.1 µM)	–
CCSC1CC(=O)C(C)CC(CC=O)C(OC2OC(C)C(OC3CC(C)(O)C(O)C(C)O3)C(N(C)C)C2O)C(C)C(O)CC(=O)OC(CC)C(COC2OC(C)C(O)C(OC)C2OC)C=C1C (stereo not drawn) [Compound R, 11-(Ethylthio)-10,11-dihydrotylosin]	< 0.1 µg/mL	100 µg/mL (≈ 102 µM)	–	1.56 µg/mL (≈ 1.59 µM)	> 100 µg/mL	0.78 µg/mL (≈ 0.797 µM)	100 µg/mL (≈ 102 µM)	0.78 µg/mL (≈ 0.797 µM)	> 100 µg/mL	> 100 µg/mL	100 µg/mL (≈ 102 µM)	100 µg/mL (≈ 102 µM)	–	–	> 100 µg/mL	–
CCC1OC(=O)CC(O)C(C)C(OC2OC(C)C(O)C(N(C)C)C2O)C(CC=O)CC(C)C(=O)CC(Sc2ccccc2)C(C)=CC1COC1OC(C)C(O)C(OC)C1OC (stereo not drawn) [Compound Q, 10,11-Dihydro-11-(phenylthio)demycarosyltylosin]	< 0.1 µg/mL	> 100 µg/mL	–	0.78 µg/mL (≈ 0.884 µM)	> 100 µg/mL	0.78 µg/mL (≈ 0.884 µM)	100 µg/mL (≈ 113 µM)	0.2 µg/mL (≈ 0.227 µM)	> 100 µg/mL	50 µg/mL (≈ 56.7 µM)	100 µg/mL (≈ 113 µM)	100 µg/mL (≈ 113 µM)	–	–	100 µg/mL (≈ 113 µM)	–
